Laboratory results: patent US20160237067A1, “SUBSTITUTED PHENYLALANINE DERIVATIVES” (BAYER PHARMA AKTIENGESELLSCHAFT, priority 2013, published 2016)
Structures can show the parent of a compound that is named as a salt.

Legend:
human factor XIa = target: T1, human factor XIa (Homo sapiens, UniProt P03951); experiment: Measurement of FXIa inhibition (fluorogenic peptide substrate Boc-Glu(OBzl)-Ala-Arg-AMC); assay type: biochemical; conditions: factor XIa from Kordia 0.45 nM; 15 min preincubation; 30 min at 22° C.
T1 construct: purchased Kordia
T1 sequence (P03951 388-625 limits assumed): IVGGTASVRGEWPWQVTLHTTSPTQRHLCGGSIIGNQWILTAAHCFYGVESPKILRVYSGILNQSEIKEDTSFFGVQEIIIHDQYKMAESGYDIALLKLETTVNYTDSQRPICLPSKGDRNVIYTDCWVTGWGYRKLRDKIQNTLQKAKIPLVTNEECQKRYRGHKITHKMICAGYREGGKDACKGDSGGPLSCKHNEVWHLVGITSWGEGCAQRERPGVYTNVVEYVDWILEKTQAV
T1 sequence (P03951 19-387 partner limits assumed): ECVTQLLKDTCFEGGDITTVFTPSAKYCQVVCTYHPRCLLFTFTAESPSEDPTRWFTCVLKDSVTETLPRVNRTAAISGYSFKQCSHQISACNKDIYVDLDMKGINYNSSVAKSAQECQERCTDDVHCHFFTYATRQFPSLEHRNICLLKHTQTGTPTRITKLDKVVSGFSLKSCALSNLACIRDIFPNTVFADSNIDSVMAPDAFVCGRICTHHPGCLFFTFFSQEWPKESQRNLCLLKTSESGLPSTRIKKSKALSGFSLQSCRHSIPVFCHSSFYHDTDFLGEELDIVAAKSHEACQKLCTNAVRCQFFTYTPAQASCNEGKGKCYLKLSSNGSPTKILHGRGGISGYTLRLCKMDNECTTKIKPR
Protocol: The factor XIa inhibition of the substances according to the invention is determined using a biochemical test system which utilizes the reaction of a peptidic factor XIa substrate to determine the enzymatic activity of human factor XIa. Here, factor XIa cleaves from the peptic factor XIa substrate the C-terminal aminomethylcoumarin (AMC), the fluorescence of which is measured. The determinations are carried out in microtitre plates.
Test substances are dissolved in dimethyl sulphoxide and serially diluted in dimethyl sulphoxide (3000 μM to 0.0078 μM; resulting final concentrations in the test: 50 μM to 0.00013 μM). In each case 1 μl of the diluted substance solutions is placed into the wells of white microtitre plates from Greiner (384 wells). Subsequently, the following are added successively: 20 μl of assay buffer (50 mmol/l Tris buffer pH 7.4; 100 mmol/l sodium chloride; 5 mmol/l calcium chloride; 0.1% bovine serum albumin) and 20 μl of factor XIa from Kordia (0.45 nM in assay buffer). After 15 min of incubation, the enzyme reaction is started by addition of 20 μl of the factor XIa substrate Boc-Glu(OBzl)-Ala-Arg-AMC dissolved in assay buffer (10 μM in assay buffer) from Bachem, the mixture is incubated at room temperature (22° C.) for 30 min and fluorescence is then measured (excitation: 360 nm, emission: 460 nm). The measured emissions of the test batches with test substance are compared to those of control batches without test substance (only dimethyl sulphoxide instead of test substance in dimethyl sulphoxide), and IC50 values are calculated from the concentration/activity relationships.

human and animal plasma = experiment: Determination of anticoagulatory activity: activated partial thromboplastin time (aPTT) in plasma; assay type: biochemical; conditions: C.K. Prest kit, 37° C., 3 minutes incubation, plasma species of Table B not stated
Protocol: The anticoagulatory activity of the test substances is determined in vitro in human and animal plasma (for example mouse, rat, rabbit, pig and dog plasma). To this end, blood is drawn off in a mixing ratio of sodium citrate/blood of 1:9 using a 0.11 molar sodium citrate solution as receiver. Immediately after the blood has been drawn off, it is mixed thoroughly and centrifuged at about 4000 g for 15 minutes. The supernatant is pipetted off.
The activated partial thromboplastin time (aPTT) is determined in the presence of varying concentrations of test substance or the corresponding solvent using a commercial test kit (C.K. Prest from Diagnostica Stago). The test compounds are incubated with the plasma and the PTT reagent (cephalin, kaolin) at 37° C. for 3 minutes. Coagulation is then started by addition of a 25 mM aqueous calcium chloride solution, and the time when coagulation occurs is determined. The concentration of test substance which brings about a 1.5-fold extension of the aPTT is determined Activity data from this test are listed in Table B below: […]

IC50 (human factor XIa) | Compound | aPTT (concentration of test substance which brings about a 1.5-fold extension of the aPTT) (human and animal plasma)
2.7 nM | Cc1c(F)cc(C(=O)NC(C)C)cc1-c1ccc(C[C@H](NC(=O)[C@H]2CC[C@H](CN)CC2)C(=O)Nc2ccc(-c3nn[nH]n3)cc2)cc1 [Example 30, 4′-[(2S)-2-({[trans-4-(Aminomethyl)cyclohexyl]carbonyl}amino)-3-oxo-3-{[4-(2H-tetrazol-5-yl)phenyl]amino}propyl]-5-fluoro-N-isopropyl-6-methylbiphenyl-3-carboxamide hydrochloride] | 0.2 µmol/L
4.5 nM | Cc1c(F)cc(C(=O)NC2CCNCC2)cc1-c1ccc(C[C@H](NC(=O)[C@H]2CC[C@H](CN)CC2)C(=O)Nc2ccc(-c3nn[nH]n3)cc2)cc1 [Example 31, 4′-[(2S)-2-({[trans-4-(Aminomethyl)cyclohexyl]carbonyl}amino)-3-oxo-3-{[4-(2H-tetrazol-5-yl)phenyl]amino}propyl]-5-fluoro-6-methyl-N-(piperidin-4-yl)biphenyl-3-carboxamide hydrochloride] | 0.16 µmol/L
4.7 nM | Cc1ccc(C(=O)N[C@H]2CC[C@H](O)CC2)cc1-c1ccc(C[C@H](NC(=O)[C@H]2CC[C@H](CN)CC2)C(=O)Nc2ccc(-c3nn[nH]n3)cc2)cc1 [Example 32, 4′-[(2S)-2-({[trans-4-(Aminomethyl)cyclohexyl]carbonyl}amino)-3-oxo-3-{[4-(2H-tetrazol-5-yl)phenyl]amino}propyl]-N-(trans-4-hydroxycyclohexyl)-6-methylbiphenyl-3-carboxamide hydrochloride] | 0.15 µmol/L
5.4 nM | Cc1ccc(C(=O)N2CCOCC2)cc1-c1ccc(C[C@H](NC(=O)[C@H]2CC[C@H](CN)CC2)C(=O)Nc2ccc(-c3nn[nH]n3)cc2)cc1 [Example 33, trans-4-(Aminomethyl)-N-[(2S)-3-[2′-methyl-5′-(morpholin-4-ylcarbonyl)biphenyl-4-yl]-1-oxo-1-{[4-(2H-tetrazol-5-yl)phenyl]amino}propan-2-yl]cyclohexanecarboxamide hydrochloride] | 0.18 µmol/L
4.1 nM | Cc1cc(C(=O)NC2CCN(C)CC2)cc(-c2ccc(C[C@H](NC(=O)[C@H]3CC[C@H](CN)CC3)C(=O)Nc3ccc(-c4nn[nH]n4)cc3)cc2)c1C [Example 34, 4′-[(2S)-2-({[trans-4-(Aminomethyl)cyclohexyl]carbonyl}amino)-3-oxo-3-{[4-(2H-tetrazol-5-yl)phenyl]amino}propyl]-5,6-dimethyl-N-(1-methylpiperidin-4-yl)biphenyl-3-carboxamide hydrochloride] | 0.06 µmol/L
10 nM | NC[C@H]1CC[C@H](C(=O)N[C@@H](Cc2ccc(-c3ccc(F)c(C(=O)NC4CCNCC4)c3)cc2)C(=O)Nc2ccc(-c3nn[nH]n3)cc2)CC1 [Example 35, 4′-[(2S)-2-({[trans-4-(Aminomethyl)cyclohexyl]carbonyl}amino)-3-oxo-3-{[4-(2H-tetrazol-5-yl)phenyl]amino}propyl]-4-fluoro-N-(piperidin-4-yl)biphenyl-3-carboxamide hydrochloride] | 0.2 µmol/L
1.9 nM | Cc1ccc(C(=O)NC2CCNC(=O)C2)cc1-c1ccc(C[C@H](NC(=O)[C@H]2CC[C@H](CN)CC2)C(=O)Nc2ccc(-c3nn[nH]n3)cc2)cc1 (stereo partly drawn) [Example 36, 4′-[(2S)-2-({[trans-4-(Aminomethyl)cyclohexyl]carbonyl}amino)-3-oxo-3-{[4-(2H-tetrazol-5-yl)phenyl]amino}propyl]-6-methyl-N-(2-oxopiperidin-4-yl)biphenyl-3-carboxamide hydrochloride] | 0.14 µmol/L
7.5 nM | Cc1cc(C(=O)NC2CCC(N(C)C)CC2)cc(-c2ccc(C[C@H](NC(=O)[C@H]3CC[C@H](CN)CC3)C(=O)Nc3ccc(-c4nn[nH]n4)cc3)cc2)c1 (stereo partly drawn) [Example 37, 4′-[(2S)-24 {[trans-4-(Aminomethyl)cyclohexyl]carbonyl}amino)-3-oxo-3-{[4-(2H-tetrazol-5-yl)phenyl]amino}propyl]-N-[4-(dimethylamino)cyclohexyl]-5-methylbiphenyl-3-carboxamide hydrochloride] | 0.14 µmol/L
4.1 nM | Cc1ccc(-c2ccc(C[C@H](NC(=O)[C@H]3CC[C@H](CN)CC3)C(=O)Nc3ccc(-c4nn[nH]n4)cc3)cc2)cc1C(=O)N1CCOCC1 [Example 38, trans-4-(Aminomethyl)-N-[(2S)-3-[4′-methyl-3′-(morpholin-4-ylcarbonyl)biphenyl-4-yl]-1-oxo-1-{[4-(2H-tetrazol-5-yl)phenyl]amino}propan-2-yl]cyclohexanecarboxamide hydrochloride] | 0.22 µmol/L
4.1 nM | Cc1cc(C(=O)NC2CCNCC2)cc(-c2ccc(C[C@H](NC(=O)[C@H]3CC[C@H](CN)CC3)C(=O)Nc3ccc(-c4nn[nH]n4)cc3)cc2)c1 [Example 40, 4′-[(2S)-2-({[trans-4-(Aminomethyl)cyclohexyl]carbonyl}amino)-3-oxo-3-{[4-(2H-tetrazol-5-yl)phenyl]amino}propyl]-5-methyl-N-(piperidin-4-yl)biphenyl-3-carboxamide hydrochloride] | 0.06 µmol/L
6.8 nM | Cc1ccc(C(=O)NC2CCN(C)CC2)cc1-c1ccc(C[C@H](NC(=O)[C@H]2CC[C@H](CN)CC2)C(=O)Nc2ccc(-c3nc(C(F)(F)C(F)(F)C(=O)O)n[nH]3)cc2)cc1 [Example 42, 3-[5-(4-{[(2S)-2-({[trans-4-(Aminomethyl)cyclohexyl]carbonyl}amino)-3-{2′-methyl-5′-[(1-methylpiperidin-4-yl)carbamoyl]biphenyl-4-yl}propanoyl]amino}phenyl)-1H-1,2,4-triazol-3-yl]-2,2,3,3-tetrafluoropropanoic acid hydrochloride] | 0.16 µmol/L
9.7 nM | Cc1ccc(C(=O)NC(C)C)cc1-c1ccc(C[C@H](NC(=O)[C@H]2CC[C@H](CN)CC2)C(=O)Nc2ccc(-c3nc(CCC(=O)O)n[nH]3)cc2)cc1 [Example 43, 3-{5-[4-({(2S)-2-({[trans-4-(Aminomethyl)cyclohexyl]carbonyl}amino)-3-[5′-(isopropylcarbamoyl)-2′-methylbiphenyl-4-yl]propanoyl}amino)phenyl]-1H-1,2,4-triazol-3-yl}propanoic acid hydrochloride] | 0.38 µmol/L
2.2 nM | COc1ccc(-c2ccc(C[C@H](NC(=O)[C@H]3CC[C@H](CN)CC3)C(=O)Nc3ccc(-c4nc(C(F)(F)C(F)(F)C(=O)O)n[nH]4)cc3)cc2)cc1S(=O)(=O)N1CCOCC1 [Example 44, 3-{5-[4-({(2S)-2-({[trans-4-(Aminomethyl)cyclohexyl]carbonyl}amino)-3-[4′-methoxy-3′-(morpholin-4-ylsulphonyl)biphenyl-4-yl]propanoyl}amino)phenyl]-1H-1,2,4-triazol-3-yl}-2,2,3,3-tetrafluoropropanoic acid hydrochloride] | 0.2 µmol/L
